Results on 12 compounds are retold here after ChEMBL document CHEMBL5346860, “Cancer multidrug-resistance reversal by ABCB1 inhibition: A recent update” (Eur J Med Chem, 2022).

Data set [1] addresses T1, ATP-dependent translocase ABCB1 (Homo sapiens, UniProt P08183). The data set can be described thus: Inhibition of P-gp1 efflux in human Flp-In-293 cells using rhodamine as substrate assessed as increase in intracellular accumulation of rhodamine 123 preincubated for 30 mins followed by substrate addition and measured for 10 mins by fluorescence based assay. The format is cell-based.

Data set [2] addresses T1, ATP-dependent translocase ABCB1. The data set can be described thus: Inhibition of P-gp1 efflux in human Flp-In-293 cells using calcein-AM as substrate assessed as increase in intracellular accumulation of calcein-AM preincubated for 30 mins followed by substrate addition and measured for 30 mins by fluorescence based assay. The format is cell-based.
Data set [3] shares this target. The data set can be described thus: Inhibition of ABCB1 efflux pump in human LS180 cells using Rh123 as substrate incubated for 90 mins by fluorescence based assay. The data set is classed as cell-based.
Another data set can be described thus: cells. Conditions: Homo sapiens, EPP85-181RDB, 72 h.
A short description of data set [4]: Antiproliferative activity against daunorubicin-resistant human EPG85-257 cells incubated for 72 hrs by annexin-V-PI staining based flow cytometry. The format is functional, EPG85-257RDB. A general note: Flow cytometry measures light scatter and fluorescence of single cells or particles in a stream.
The test system of data set [5] is L5178Y. As to the kind of experiment: Cytotoxicity against multidrug-resistant mouse L5178Y cells expressing ABCB1 assessed as cell growth inhibition incubated for 24 hrs by MTT assay. The format is functional, cell-based. For orientation: Tetrazolium dyes change colour on reduction, which living cells bring about.
For data set [6], the system named is L5178Y. The data set can be described thus: Cytotoxicity against multi-drug resistant mouse L5178Y cells expressing ABCB1 assessed as cell growth inhibition incubated for 24 hrs by MTT assay. The format is functional, cell-based.
Data set [7] addresses T1, ATP-dependent translocase ABCB1. As to the kind of experiment: Inhibition of P-gp efflux pump in human MCF7 cells assessed as fold increase in vinblastine cellular accumulation. The data set is classed as cell-based.
Data set [8] has as its target Multidrug resistance-associated protein 1 (Homo sapiens, UniProt P33527). As to the kind of experiment: Inhibition of MRP1 efflux pump in human MCF7 cells assessed as fold increase in vinblastine cellular accumulation. The format is cell-based.
Data set [9] concerns the target T2, Broad substrate specificity ATP-binding cassette transporter ABCG2 (Homo sapiens, UniProt Q9UNQ0).
T2 sequence (Q9UNQ0 whole entry): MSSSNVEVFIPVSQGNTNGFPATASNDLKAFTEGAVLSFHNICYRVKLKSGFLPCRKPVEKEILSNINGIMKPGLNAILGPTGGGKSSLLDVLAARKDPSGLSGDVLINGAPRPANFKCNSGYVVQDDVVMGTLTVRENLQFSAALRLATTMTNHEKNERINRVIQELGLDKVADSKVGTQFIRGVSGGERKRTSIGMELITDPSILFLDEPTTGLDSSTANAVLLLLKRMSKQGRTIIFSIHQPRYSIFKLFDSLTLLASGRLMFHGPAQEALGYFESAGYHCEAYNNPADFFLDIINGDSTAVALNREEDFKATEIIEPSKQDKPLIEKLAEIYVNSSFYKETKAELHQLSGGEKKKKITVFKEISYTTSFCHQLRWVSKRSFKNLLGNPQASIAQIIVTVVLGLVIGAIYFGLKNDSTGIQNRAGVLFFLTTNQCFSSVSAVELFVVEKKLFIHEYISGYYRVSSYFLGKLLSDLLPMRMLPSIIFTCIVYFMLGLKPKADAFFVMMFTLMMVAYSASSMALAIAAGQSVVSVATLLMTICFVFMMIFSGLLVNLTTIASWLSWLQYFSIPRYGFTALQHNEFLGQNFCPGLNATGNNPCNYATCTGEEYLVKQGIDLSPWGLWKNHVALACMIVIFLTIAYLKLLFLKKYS
As to the kind of experiment: Inhibition of BCRP efflux pump in human MCF7 cells assessed as fold increase in vinblastine cellular accumulation. The format is cell-based.

Another data set deals with KB 3-1. The data set can be described thus: cells. Conditions: Homo sapiens, KB 3-1, 72 h.
Another data set concerns KB-V1. The data set can be described thus: cells. Particulars: Homo sapiens, KB-V1, 72 h.
Data set [10] can be described thus: Reversal of doxorubicin resistance in human Flp-In-293 cells expressing ABCB1 assessed as cell growth inhibition in presence of caffeic acid for 30 mins by fluorescence based assay. The format is functional. Particulars: Flp-In-293, 0.5 h.
Data set [11] is described as follows: Reversal of vincristine resistance in human Flp-In-293 cells expressing ABCB1 assessed as cell growth inhibition in presence of caffeic acid for 30 mins by fluorescence based assay. The format is functional. Conditions: Flp-In-293, 0.5 h.
Data set [12] can be described thus: Reversal of paclitaxel resistance in human Flp-In-293 cells expressing ABCB1 assessed as fold change in paclitaxel IC50 in presence of caffeic acid for 30 mins by fluorescence based assay. The data set is classed as functional. Conditions: 0.5 h.
A short description of data set [13]: Reversal of paclitaxel resistance in human Flp-In-293 cells expressing ABCB1 assessed as cell growth inhibition in presence of caffeic acid for 30 mins by fluorescence based assay. The format is functional. Particulars: Flp-In-293, 0.5 h.
Data set [14] is described as follows: Reversal of […] in human Flp-In-293 cells expressing ABCB1 assessed as fold change in doxorubicin IC50 in presence of caffeic acid for 30 mins by fluorescence based assay. The data set is classed as functional. Conditions: 0.5 h.
The nature of data set [15]: Reversal of vincristine resistance in human Flp-In-293 cells expressing ABCB1 assessed as fold change in vincristine IC50 in presence of caffeic acid for 30 mins by fluorescence based assay. The data set is classed as functional. Particulars: 0.5 h.

Values after ≈ are worked out from the molar mass of the structure shown.

T1 sequence (P08183 whole entry): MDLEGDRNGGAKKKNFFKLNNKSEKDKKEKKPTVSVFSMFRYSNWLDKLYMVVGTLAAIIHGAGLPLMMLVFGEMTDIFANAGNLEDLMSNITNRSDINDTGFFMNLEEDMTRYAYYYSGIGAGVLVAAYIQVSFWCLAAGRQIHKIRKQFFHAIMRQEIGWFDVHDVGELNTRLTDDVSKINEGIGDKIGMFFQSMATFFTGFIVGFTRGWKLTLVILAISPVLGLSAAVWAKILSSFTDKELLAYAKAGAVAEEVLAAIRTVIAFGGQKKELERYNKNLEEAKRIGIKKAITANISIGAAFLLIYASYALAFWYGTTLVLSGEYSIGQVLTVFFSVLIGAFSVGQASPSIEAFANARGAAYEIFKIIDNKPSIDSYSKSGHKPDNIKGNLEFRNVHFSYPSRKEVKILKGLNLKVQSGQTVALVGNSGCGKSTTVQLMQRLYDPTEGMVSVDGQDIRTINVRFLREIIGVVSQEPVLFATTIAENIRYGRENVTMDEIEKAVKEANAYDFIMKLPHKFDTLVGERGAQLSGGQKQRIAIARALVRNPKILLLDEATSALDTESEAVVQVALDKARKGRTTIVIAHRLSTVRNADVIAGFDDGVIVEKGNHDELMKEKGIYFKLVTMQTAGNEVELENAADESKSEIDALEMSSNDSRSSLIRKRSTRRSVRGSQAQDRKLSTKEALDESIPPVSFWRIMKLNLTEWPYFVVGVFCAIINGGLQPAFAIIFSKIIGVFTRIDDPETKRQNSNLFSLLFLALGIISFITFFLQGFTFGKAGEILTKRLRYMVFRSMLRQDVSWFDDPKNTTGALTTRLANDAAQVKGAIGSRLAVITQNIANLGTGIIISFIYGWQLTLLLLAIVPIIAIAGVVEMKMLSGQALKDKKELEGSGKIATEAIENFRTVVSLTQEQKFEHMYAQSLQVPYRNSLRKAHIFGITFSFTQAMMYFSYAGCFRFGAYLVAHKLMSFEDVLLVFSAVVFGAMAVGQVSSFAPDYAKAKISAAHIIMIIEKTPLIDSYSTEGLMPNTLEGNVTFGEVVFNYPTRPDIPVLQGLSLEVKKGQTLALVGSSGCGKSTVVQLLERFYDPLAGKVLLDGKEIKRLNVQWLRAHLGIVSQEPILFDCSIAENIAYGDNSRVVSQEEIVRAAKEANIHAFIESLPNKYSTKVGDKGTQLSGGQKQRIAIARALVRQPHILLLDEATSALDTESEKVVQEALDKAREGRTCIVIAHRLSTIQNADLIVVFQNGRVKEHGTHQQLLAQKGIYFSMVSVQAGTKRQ
Sequence of Multidrug resistance-associated protein 1 (P33527 whole entry): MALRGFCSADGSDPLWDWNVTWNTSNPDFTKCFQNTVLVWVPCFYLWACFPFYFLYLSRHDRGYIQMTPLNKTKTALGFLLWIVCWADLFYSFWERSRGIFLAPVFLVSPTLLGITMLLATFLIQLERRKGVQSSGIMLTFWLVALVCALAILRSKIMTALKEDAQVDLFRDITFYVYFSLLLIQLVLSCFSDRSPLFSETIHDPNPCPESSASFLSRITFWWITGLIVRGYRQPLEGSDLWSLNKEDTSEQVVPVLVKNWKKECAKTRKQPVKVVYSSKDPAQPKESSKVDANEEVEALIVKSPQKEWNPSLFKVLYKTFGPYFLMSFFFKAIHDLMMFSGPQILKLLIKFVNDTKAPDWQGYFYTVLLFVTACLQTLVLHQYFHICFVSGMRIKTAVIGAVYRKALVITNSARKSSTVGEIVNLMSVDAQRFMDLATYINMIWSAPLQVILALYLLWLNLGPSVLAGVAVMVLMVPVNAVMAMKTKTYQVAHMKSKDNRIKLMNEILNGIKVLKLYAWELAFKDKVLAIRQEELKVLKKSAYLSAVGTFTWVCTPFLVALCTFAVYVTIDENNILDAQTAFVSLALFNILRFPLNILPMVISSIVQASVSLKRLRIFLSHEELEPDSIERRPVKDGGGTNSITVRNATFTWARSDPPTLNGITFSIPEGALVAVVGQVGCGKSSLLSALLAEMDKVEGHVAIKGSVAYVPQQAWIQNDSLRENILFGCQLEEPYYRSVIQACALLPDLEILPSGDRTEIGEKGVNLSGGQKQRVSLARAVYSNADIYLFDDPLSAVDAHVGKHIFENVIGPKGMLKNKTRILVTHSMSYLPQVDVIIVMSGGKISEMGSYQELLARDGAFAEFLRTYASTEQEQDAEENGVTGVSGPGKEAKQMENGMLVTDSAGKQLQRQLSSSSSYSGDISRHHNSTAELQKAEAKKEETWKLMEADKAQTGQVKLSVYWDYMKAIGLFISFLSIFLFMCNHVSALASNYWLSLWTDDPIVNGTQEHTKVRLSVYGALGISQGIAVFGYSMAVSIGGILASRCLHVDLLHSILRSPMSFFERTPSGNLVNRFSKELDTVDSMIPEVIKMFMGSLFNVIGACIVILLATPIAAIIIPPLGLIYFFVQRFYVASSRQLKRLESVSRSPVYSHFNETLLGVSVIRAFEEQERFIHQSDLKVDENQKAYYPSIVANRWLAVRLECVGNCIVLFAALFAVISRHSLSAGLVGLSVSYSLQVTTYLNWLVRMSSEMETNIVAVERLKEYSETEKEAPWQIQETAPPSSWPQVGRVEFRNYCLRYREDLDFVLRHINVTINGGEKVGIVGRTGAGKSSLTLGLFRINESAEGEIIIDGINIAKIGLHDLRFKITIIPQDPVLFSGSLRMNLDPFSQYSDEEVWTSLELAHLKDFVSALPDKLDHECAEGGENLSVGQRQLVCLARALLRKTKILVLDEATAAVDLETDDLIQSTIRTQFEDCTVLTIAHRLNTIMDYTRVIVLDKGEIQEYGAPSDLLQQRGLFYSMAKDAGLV
Description for KB 3-1: Cytotoxicity against human KB 3-1 cells assessed as cell growth inhibition incubated for 72 hrs by MTS assay
Description for KB-V1: Cytotoxicity against human KB-V1 cells assessed as cell growth inhibition incubated for 72 hrs by MTS assay

For `COc1cc(/C=C/C(=O)CC(=O)/C=C/c2ccc(O)cc2)ccc1O`, the IC50 in data set [1] and in data set [2] was 1.56 µM each time.
Take `O=C(Nc1ccc(F)cc1)c1sccc1Nc1cccc2c1OCCO2`: a half-maximal response in data set [3] (EC50) required 35 µM.
In the case of `O=C(Nc1ccc(F)cc1)c1sccc1Nc1cccc2c1OCO2`, the EC50 (commonly the concentration at which the effect is half-maximal) in data set [3] is 35 µM.
As to `C=C1[C@H](OC(=O)C(C)C)C[C@@H](OC(=O)c2cccnc2)C(C)(C)/C=C/[C@@H](C)C(=O)[C@@]2(OC(C)=O)C[C@H](C)[C@H](OC(C)=O)[C@@H]2[C@H]1OC(C)=O`, the IC50 (as a rule, the concentration needed to halve the response being measured) in “cells” came to 4.8 µM. Further, the IC5 in data set [4] came out at 1.8 µM.
On to `C#CCn1c(-c2ccc(OC)cc2)nc2cc(Br)cnc21`, for which the IC50 in the data set on L5178Y [5] was 0.2 µM.
Turning to `O=C(C(C(=O)C(F)(F)C(F)(F)F)=P(c1ccccc1)(c1ccccc1)c1ccccc1)c1ccccc1`, the IC50 in the data set with L5178Y [6] worked out at 39.4 µg/mL (≈ 74.7 µM).
Turning to `O=C(C(C(=O)C(F)(F)C(F)(F)C(F)(F)F)=P(c1ccccc1)(c1ccccc1)c1ccccc1)c1ccccc1`, the IC50 in the data set with L5178Y [6] was 42.4 µg/mL (≈ 73.5 µM).
The same measure, in the same setting: the value for `O=C(C(C(=O)C(F)(F)F)=P(c1ccccc1)(c1ccccc1)c1ccccc1)c1ccccc1` was 37 µg/mL (≈ 77.7 µM).
Take `CCCN(CCC)S(=O)(=O)c1ccc(C(=O)CC[C@H](N)C(=O)O)cc1`: the “fold change (FC)” value in data set [7], in data set [8] and in data set [9] was 3 each time.
For the compound `COc1ccc(CCC2c3cc(OCc4ccccc4)c(OC)cc3CCN2C)cc1OCc1ccccc1` (racemic), the IC50 with KB 3-1 amounted to 11.5 µM; with KB-V1, 15.1 µM.
As for `O=C(O)/C=C/c1ccc(O)c(O)c1` [CAFFEIC ACID], the IC50 worked out at 0.597 µM in data set [10], 0.198 µM in data set [11] and 0.125 µM in [13]. In addition, the figures for the “fold change (FC)” value in [12], in data set [14] and in data set [15] were 4.96, 15.11 and 3.9, respectively.
Turning to `C/C=C/C[C@@H](C)[C@@H](O)[C@H]1C(=O)N[C@@H](CC)C(=O)N(C)CC(=O)N(C)[C@@H](CC(C)C)C(=O)N[C@@H](C(C)C)C(=O)N(C)[C@@H](CC(C)C)C(=O)N[C@@H](C)C(=O)N[C@H](C)C(=O)N(C)[C@@H](CC(C)C)C(=O)N(C)[C@@H](CC(C)C)C(=O)N(C)[C@@H](C(C)C)C(=O)N1C` [CYCLOSPORINE], the IC50 in the data set on KB 3-1 came out at 23.9 µM; in the data set on KB-V1, 7.95 µM.
